Here are results for four compounds from patent publication US6262116A, “Transcription therapy for cancers” (Sloan-Kettering Institute for Cancer Research, priority 1998, dated 2001).

Data set [1] has as its system PLZF-retinoic acid receptor-α bone marrow leukaemic cells. Briefly: Proliferation (3H-thymidine incorporation) of PLZF-RARα bone marrow leukaemic cells. It counts as cell-based, mouse. On the procedure: (§1) Myeloid differentiation was evaluated by performing the nitroblue tetrazolium (NBT) assay, and cell proliferation by measuring DNA synthesis quantitating incorporation of ^3 H-thymidine.
(§2) Differentiation was evaluated performing the nitroblue tetrazolium (NBT) assay and morphological differential count^32. Proliferation of bone marrow cells was evaluated by measuring DNA synthesis quantitating incorporation of ^3 H-thymidine (Amersham). Bone marrow cells were plated at a density of 2×10^6 cells/ml and were pulsed with ^3 H-thymidine at a final concentration of […].

The subject of data set [2] is myelodysplasia, myeloid leukemia and solid tumors. To be noted: human, in vivo; cited from earlier work.
Data set [3] has as its system NB4 cells. Briefly: NB4 cell differentiation (CD11b expression and NBT reduction). The data set is classed as cell-based, human. How it is done:
(§3) NB4 cells, a line that stably carries the PML/RAR-α fusion protein of acute promyelocytic leukemia^71, were maintained in RPMI1640 medium, which was supplemented with 10% fetal bovine serum and 1% of penicillin-streptomycin, at 37° C. in 5% CO2 atmosphere. Cultures were established at an initial density of 10^5 cells/ml in the presence or absence of drugs at various concentrations. Cellular proliferation was measured by assessment of ^3 H-thymidine incorporation. Aliquots (180 μl) from each culture were placed into 96-well plates in triplicate after 20 hrs of incubation, and 0.5 μCi of ^3 H-thymidine in 20 μl of medium was added to each well. […] The proportion of cells undergoing apoptosis was determined by Annexin V staining^72. Aliquots (1 ml) from each culture were harvested after 48 hrs incubation and the cells were stained with fluorescein isothiocyanate (FITC)-conjugated Annexin V and propidium iodide, according to the manufacturer's instructions (PharMingen, San Diego, Calif.). Annexin V and propidium iodide positivity were analyzed by flow cytometry (Becton-Dickinson, Mountainview, Calif.). Cell viability was measured after 4 days of incubation by using trypan blue exclusion. Cellular differentiation was evaluated at day 4 of incubation using both an assay for nitroblue tetrazolium (NBT) reduction and expression of CD11b (a cell surface differentiation antigen)^73. Briefly, 10^6 cells were harvested and incubated with 0.1% NBT solution in the presence of 12-o-tetradecanoylphorbol 13-acetate (TPA) (0.1 μg/ml) for 1 hr. The pellet of the mixture was then resuspended with 0.04 M HCl/10% SDS and kept at room temperature for 24 hrs. […] For CD11b expression, 10^6 cells were incubated with FITC-conjugated CD11b monoclonal antibody (PharMingen). A FITC-conjugated isotype was used as background control. Expression of CD11b, including percentage of positive cells and the fluorescence intensity, was determined by using flow cytometry (Becton Dickinson).

Data set [4] in a line: Plasma concentrations of phenylbutyrate during clinical infusion. The data set is classed as in vivo, human.
Text: During the post-remission treatment course, blood specimens collected on heparin were serially obtained before and 2, 4, and 6 hrs following a 2-hour infusion of phenylbutyrate for determination of histone acetylation levels in leukocytes.
The test system of data set [5] is acetylated histones H3 and H4. Briefly: Histone hyperacetylation in patient's blood and bone marrow mononuclear cells (Western, immunofluorescence). The data set is classed as in vivo, human. On the procedure:
Hyperacetylation was detected using antiacetylated H3 or H4 antibodies reacting with histones that were acid-extracted from nucleated cells in peripheral blood before (lane 1) and 2, 4 and 6 hours (lanes 2 to 4) after initiation of the phenylbutyrate infusion, and from bone marrow before (lane 5) and after (lane 6) completion of the infusion. The parallel gel stained with Coomassie blue is a loading control.
Mononuclear cells from the patient's blood and bone marrow were isolated by density centrifugation and were applied on slides by cytospin. The slides were fixed in 95% ethanol/5% acetic acid for 1 min, permeabilized and blocked in 10% goat serum/1% BSA/0.3% Triton X-100/PBS for 40 min. The slides were then incubated with anti-acetylated histone H4 antibody (Upstate Biotechnology, Inc., Lake Placid, N.Y.) for 1 hr. A Texas-red-conjugated IgG was used as a secondary antibody to reveal the positivity; staining with 4',6-diamidino-2-phenylindole (DAPI) was used to reveal nuclei.
Nuclei from separated blood and bone marrow mononuclear cells were isolated by lysis in buffer containing 10 mM Tris-HCl pH 6.5, 50 mM sodium bisulfite, 1% Triton X-100, 10 mM MgCl2, 8.6% sucrose and Dounce homogenization. Histones were isolated by acid extraction^74. Isolated histones ([…]) were then separated on 15% SDS-PAGE minigels (Bio-Rad, Hercules, Calif.) and transferred to nitrocellulose (Schleicher and Schuell, Keene, N.H.). Hyperacetylated histones were detected by antibodies that specifically recognize the hyperacetylated forms of histone H4 and histone H3 (Upstate Biotechnology) and were visualized by chemiluminescence (Pierce, Rockford, Ill.). As a control for the amount of protein loading, parallel gels were stained with Coomassie blue.

The test system of data set [6] is NB4 cells. Briefly: NB4 cell viability (trypan blue exclusion). It counts as cell-based, human. The following applies: phenylbutyrate 10 mM, 4 days of culture. On the procedure: NB4 cells, a line that stably carries the PML/RAR-α fusion protein of acute promyelocytic leukemia^71, were maintained in RPMI1640 medium, which was supplemented with 10% fetal bovine serum and 1% of penicillin-streptomycin, at 37° C. in 5% CO2 atmosphere. Cultures were established at an initial density of 10^5 cells/ml in the presence or absence of drugs at various concentrations. Cellular proliferation was measured by assessment of ^3 H-thymidine incorporation. Aliquots (180 μl) from each culture were placed into 96-well plates in triplicate after 20 hrs of incubation, and 0.5 μCi of ^3 H-thymidine in 20 μl of medium was added to each well. […] The proportion of cells undergoing apoptosis was determined by Annexin V staining^72. […] Annexin V and propidium iodide positivity were analyzed by flow cytometry (Becton-Dickinson, Mountainview, Calif.). Cell viability was measured after 4 days of incubation by using trypan blue exclusion. Cellular differentiation was evaluated at day 4 of incubation using both an assay for nitroblue tetrazolium (NBT) reduction and expression of CD11b (a cell surface differentiation antigen)^73. […] The optical density was measured at 540 nm. […] Expression of CD11b, including percentage of positive cells and the fluorescence intensity, was determined by using flow cytometry (Becton Dickinson).

Data set [7] deals with NB4 cells. Put plainly: NB4 cell apoptosis (Annexin V flow cytometry). It counts as cell-based, human. How it is done:
as §3
(In general: A flow cytometer gives signals particle by particle.)

Data set [8] concerns NB4 cells. Put plainly: NB4 cell proliferation (3H-thymidine incorporation). The data set is classed as cell-based, human. On the procedure: as §3
The subject of data set [9] is acute promyelocytic leukemia. It counts as in vivo, human. The following applies: Jan. `98 (first line). From the text: The patient used for clinical study is a person who was diagnosed with acute promyelocytic leukemia in 1994.
Data set [10] deals with PLZF-retinoic acid receptor-α bone marrow leukaemic cells. Put plainly: Myeloid differentiation (NBT assay) of PLZF-RARα bone marrow leukaemic cells. It counts as cell-based, mouse. The following applies: Trichostatin A alone (5 ng/ml). How it is done: as §1, §2
Data set [11] deals with PML-retinoic acid receptor-α. Put plainly: 3XRARE-Luc reporter transfection assay in 293T cells, PML-RARα. The data set is classed as cell-based, human. How it is done:
(§4) The experiment was performed in medium reconstituted with serum not depleted of endogenous retinoids. Luciferase activity was measured in a scintillation counter and normalized with the internal β-galactosidase standard. […] Note that in panels A and B luciferase activity is expressed by different scales.
(§5) Luciferase activity was normalized with the internal β-galactosidase standard. Values represent the averages of two independent transfections.
(§6) 293T cells and KG1 cells were transfected by calcium phosphate precipitation, and by electroporation as already described^25, and luciferase activity of each sample was normalized against internal control β-galactosidase activity^25.
(§7) Nuclear receptor co-repressors form complexes with histone deacetylases (HDAC1 or 2), resulting in nucleosome assembly and transcriptional repression^15.

Data set [12] deals with PLZF-retinoic acid receptor-α. Briefly: 3XRARE-Luc reporter transfection assay in 293T cells, PLZF-RARα. The data set is classed as cell-based, human. How it is done: as §4, §5, §6, §7
Where [13] appears, read: Trichostatin A alone (not shown).
[14] abbreviates: retinoic acid 10^-6 M with Trichostatin A 150 nM, 36 hours.

SMILES strings stand for the structures.

For the compound `CC1=C(/C=C/C(C)=C/C=C/C(C)=C/C(=O)O)C(C)(C)CCC1` [retinoic acid, all-trans-retinoic acid], the growth inhibition entry in data set [1] (retinoic acid 10^-7 M and 10^-6 M) is “little if no effects”; in data set [1] (retinoic acid 10^-7 M and 10^-6 M, listed as Retinoic acid) it was “minimal”.
As to `O=C(O)CCCc1ccccc1` [phenylbutyrate, sodium phenylbutyrate], the clinical usefulness entry in data set [2] is listed as “has not been clinically useful”. The results for the differentiation result in data set [3] (phenylbutyrate 0.08 mM), in data set [3] (phenylbutyrate 0.4 mM) and in [3] (phenylbutyrate 2 mM) were “no effect”, “no effects on other parameters” and “little effect upon differentiation”, respectively. In addition, the “clinical achievability of concentration” value in [4] (10 mM) is “not clinically achievable”. In data set [4] (human, plasma, 150 mg/kg, patient, intravenous infusion, read-out: peak plasma levels transiently attained after completing the drug infusion), the Cmax is approximately 2000 µM. In addition, the “magnitude of hyperacetylation (Western analysis)” value in [5] (6 hours after starting the infusion) was “greatly diminished”. The “acetylated histone H4 (immunofluorescence staining of nuclei)” value in [5] (peripheral blood cells, 6 hours after starting the infusion (approximately 4 hours after discontinuing the drug)) is recorded as “hyperacetylation was still visually evident”. The “percentage of positive staining cells and staining intensity, acetylated histone H4” value in data set [5] (peripheral blood mononuclear cells 0, 2, 4, 6 hours after infusion) is reported as “progressively increases from baseline up to 6-hours”. Also, in data set [5] (peripheral blood mononuclear cells, two hours after beginning the phenylbutyrate infusion), the “levels of acetylated H3 and H4 (Western blot)” value was “markedly increased”. For the same compound, the viable cells result in data set [6] is “no viable cells remained after 4 days of culture”. The results for the apoptosis result in [7] (phenylbutyrate 0.08 mM), in data set [7] (phenylbutyrate 0.4 mM) and in [7] (phenylbutyrate 10 mM) were “no effect”, “no effects on other parameters” and “induced marked apoptosis”, respectively. The same compound had an induction of apoptosis in [7] (phenylbutyrate 2 mM, 2 days) of 15%. In addition, the proliferation entry is given as “no effect” in data set [8] (phenylbutyrate 0.08 mM), “slight growth inhibition” in data set [8] (phenylbutyrate 0.4 mM), “induced growth inhibition” in data set [8] (phenylbutyrate 2 mM) and “completely inhibited proliferation” in data set [8] (phenylbutyrate 10 mM).
On to `CC(=O)O[C@H]1C(=O)[C@@]2(C)[C@H]([C@H](OC(=O)c3ccccc3)[C@]3(O)C[C@H](OC(=O)[C@H](O)[C@@H](NC(=O)c4ccccc4)c4ccccc4)C(C)=C1C3(C)C)[C@]1(OC(C)=O)CO[C@@H]1C[C@@H]2O` [Paclitaxel], for which the Response result in [9] is reported as “Progression”.
On to `CC(/C=C/C(=O)NO)=C\[C@@H](C)C(=O)c1ccc(N(C)C)cc1` [Trichostatin A], for which the differentiation entry in data set [10] was “negligible differentiating effect”. For the same compound, the transcriptional effect result in data set [11] (setting [13]) and in data set [12] (setting [13]) was “negligible transcriptional effects” throughout. For the same compound, the “transactivation of reporter / reversal of transcriptional repression” value in [11] (setting [14]) and in [12] (setting [14]) was “reverted the transcriptional repression” in each case. The growth inhibition entry in data set [1] (Trichostatin A alone (5 ng/ml)) was “marked growth inhibitory effect”.
